The target in test [1] is USP28 (Homo sapiens (Human), UniProt Q96RU2). The test is described as follows: Ubiquitin-Rhodamine 110 Assay for USP28 Activity. It counts as biochemical. A digest of the protocol:
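Single-point screen at 10 μM, 90 min; follow-up dose-response (25 μM top, 3-fold) with 75 pM USP28 (1-1077)-TEV-6*His, 30 min compound preincubation, Ub-Rh110 substrate for 20 min at room temperature, citric acid stop. Buffer pH 8.0 Tris; fluorescence 485/535 nm; IC50 by 4-parameter logistic fit of % inhibition.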

In test [2] the target is USP25 (Homo sapiens (Human), UniProt Q9UHP3). In words: Ubiquitin-Rhodamine 110 Assay for USP25 Activity. The class given is biochemical. The procedure, abridged: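 USP25-His6 (75 pM) preincubated 30 min with compound (25 μM to 1.3 nM, 10-point 3-fold), then Ub-Rh110 added; 45 min at room temperature in pH 8.0 Tris buffer with BME, BGG, Triton X-100, stopped with 10 mM citric acid. Fluorescence 485/535 nm; % inhibition vs no-enzyme and DMSO controls, IC50 by 4-parameter logistic fit.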
Sequence of USP25 (Q9UHP3 whole entry): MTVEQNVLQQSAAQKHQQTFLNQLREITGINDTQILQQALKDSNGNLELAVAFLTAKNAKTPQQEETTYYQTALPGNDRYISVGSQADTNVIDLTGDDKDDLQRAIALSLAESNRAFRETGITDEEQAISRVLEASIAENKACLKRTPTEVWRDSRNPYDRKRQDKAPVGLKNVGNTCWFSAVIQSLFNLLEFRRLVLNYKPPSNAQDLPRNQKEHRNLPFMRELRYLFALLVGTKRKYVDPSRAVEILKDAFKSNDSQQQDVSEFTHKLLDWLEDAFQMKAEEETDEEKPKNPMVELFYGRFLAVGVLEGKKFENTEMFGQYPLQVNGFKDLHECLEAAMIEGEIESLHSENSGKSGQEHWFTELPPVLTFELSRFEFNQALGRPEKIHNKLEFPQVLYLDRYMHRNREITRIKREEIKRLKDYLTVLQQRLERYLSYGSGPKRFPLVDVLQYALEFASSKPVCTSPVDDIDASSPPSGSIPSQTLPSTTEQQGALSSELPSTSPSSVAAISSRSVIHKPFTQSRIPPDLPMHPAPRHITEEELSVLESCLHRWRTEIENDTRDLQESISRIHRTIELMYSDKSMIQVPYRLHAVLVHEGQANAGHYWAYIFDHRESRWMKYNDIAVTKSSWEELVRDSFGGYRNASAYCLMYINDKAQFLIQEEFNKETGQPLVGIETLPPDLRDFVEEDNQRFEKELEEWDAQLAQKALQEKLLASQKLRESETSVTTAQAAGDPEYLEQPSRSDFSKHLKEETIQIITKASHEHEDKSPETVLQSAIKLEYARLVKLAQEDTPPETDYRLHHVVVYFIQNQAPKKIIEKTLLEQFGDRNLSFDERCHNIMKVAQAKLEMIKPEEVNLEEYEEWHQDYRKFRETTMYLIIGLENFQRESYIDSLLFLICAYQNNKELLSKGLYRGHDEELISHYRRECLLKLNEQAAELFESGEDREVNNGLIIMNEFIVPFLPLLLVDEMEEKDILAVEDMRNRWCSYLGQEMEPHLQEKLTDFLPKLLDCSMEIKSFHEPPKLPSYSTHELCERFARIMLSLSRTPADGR

SMILES strings stand for the structures. pIC50: −log10 of the molar value.

Sequence of USP28 (Q96RU2 whole entry): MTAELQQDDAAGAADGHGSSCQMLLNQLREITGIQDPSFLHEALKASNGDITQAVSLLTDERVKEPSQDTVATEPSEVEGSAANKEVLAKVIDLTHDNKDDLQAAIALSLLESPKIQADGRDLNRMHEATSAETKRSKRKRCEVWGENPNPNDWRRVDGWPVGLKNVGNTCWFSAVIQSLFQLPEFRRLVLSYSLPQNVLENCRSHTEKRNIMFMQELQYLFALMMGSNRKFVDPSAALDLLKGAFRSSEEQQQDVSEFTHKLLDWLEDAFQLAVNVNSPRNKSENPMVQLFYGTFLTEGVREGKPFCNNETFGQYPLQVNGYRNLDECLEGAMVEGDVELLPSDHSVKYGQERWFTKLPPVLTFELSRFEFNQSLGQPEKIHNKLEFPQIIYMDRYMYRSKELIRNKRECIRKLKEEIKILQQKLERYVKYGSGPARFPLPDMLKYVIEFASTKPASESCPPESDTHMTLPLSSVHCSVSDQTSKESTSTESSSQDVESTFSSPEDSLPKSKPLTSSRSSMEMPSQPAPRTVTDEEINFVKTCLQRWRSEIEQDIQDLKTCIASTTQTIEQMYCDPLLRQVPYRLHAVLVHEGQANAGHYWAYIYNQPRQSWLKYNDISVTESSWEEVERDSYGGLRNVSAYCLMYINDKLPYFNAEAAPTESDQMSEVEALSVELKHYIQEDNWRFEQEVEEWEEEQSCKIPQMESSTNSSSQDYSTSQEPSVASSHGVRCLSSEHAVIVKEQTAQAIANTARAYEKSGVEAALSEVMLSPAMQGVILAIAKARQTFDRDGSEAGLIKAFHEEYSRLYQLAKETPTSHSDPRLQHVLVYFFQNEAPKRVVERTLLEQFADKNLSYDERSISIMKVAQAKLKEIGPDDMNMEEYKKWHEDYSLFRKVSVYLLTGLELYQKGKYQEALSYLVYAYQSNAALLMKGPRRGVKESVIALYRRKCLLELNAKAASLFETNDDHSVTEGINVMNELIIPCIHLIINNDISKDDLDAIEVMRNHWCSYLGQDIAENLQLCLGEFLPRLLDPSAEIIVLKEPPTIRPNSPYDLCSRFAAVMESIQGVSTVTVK

In general, pIC50 refers to the IC50 on a negative log10 scale, so that one unit is a factor of ten. Take `Cc1ccc2c(N)c(C(=O)NCCc3ccc(N4CCn5ccnc5C4)cc3)sc2n1` [Example I-116, 3-Amino-N-(4-(5,6-dihydroimidazo[1,2-a]pyrazin-7(8H)-yl)phenethyl)-6-methylthieno[2,3-b]pyridine-2-carboxamide]: the pIC50 in test [1] and in test [2] was 5.70 to 6.70 throughout.
For `Cc1ccc2c(N)c(C(=O)NCCc3ccc(N4CCN[C@@H](C)C4)cc3)sc2n1` [Example I-121, (S)-3-amino-6-methyl-N-(4-(3-methylpiperazin-1-yl)phenethyl)thieno[2,3-b]pyridine-2-carboxamide], the pIC50 in test [1] and in test [2] was 5.70 to 6.70 in each case.
On to `Cc1ccc2c(N)c(C(=O)NCCc3ccc(N4CCNCC4)c(-c4cnn(C(F)F)c4)c3)sc2n1` [Example I-152, 3-Amino-N-(3-(1-(difluoromethyl)-1H-pyrazol-4-yl)-4-(piperazin-1-yl)phenethyl)-6-methylthieno[2,3-b]pyridine-2-carboxamide], for which the pIC50 in test [1] was 5.00 to 5.70; in test [2], 4.60 to 5.00.
For `Cc1ccc2c(N)c(C(=O)NCCc3ccc(N4CCNCC4)c(-c4ccc(C(=O)N5CCCC5)cc4)c3)sc2n1` [Example I-165], the pIC50 is 5.70 to 6.70 in test [1] and 4.60 to 5.00 in test [2].
As for `Cc1ccc2c(N)c(C(=O)NCCc3ccc(N4CCNCC4)c(-c4cnn(C5CCOCC5)c4)c3)sc2n1` [Example I-166], the pIC50 is 5.00 to 5.70 in test [1] and 4.60 to 5.00 in test [2].
The matching figures for `Cc1ccc2c(N)c(C(=O)NCCc3ccc(N4CCNCC4)c(-c4ccccn4)c3)sc2n1` [Example I-168, 3-Amino-6-methyl-N-(4-(piperazin-1-yl)-3-(pyridin-2-yl)phenethyl)thieno[2,3-b]pyridine-2-carboxamide]: 5.00 to 5.70 and 4.60 to 5.00.
`Cc1ccc2c(N)c(C(=O)NCCc3ccc(C4CCNCC4)c(F)c3)sc2n1` [Example I-169, 3-Amino-N-(3-fluoro-4-(piperidin-4-yl)phenethyl)-6-methylthieno[2,3-b]pyridine-2-carboxamide]: the pIC50 is greater than 6.70 in test [1] and 5.70 to 6.70 in test [2].
The matching figures for `Cc1ccc2c(N)c(C(=O)NCCc3ccc(C(=O)O)cc3)sc2n1` [Example I-173, 4-(2-(3-Amino-6-methylthieno[2,3-b]pyridine-2-carboxamido)ethyl)benzoic acid]: 5.70 to 6.70 and 5.70 to 6.70.
The matching figures for `Cc1ccc2c(N)c(C(=O)NCCc3ccc(CC(=O)O)cc3)sc2n1` [Example I-174]: 5.70 to 6.70 and 5.00 to 5.70.
As to `Cc1ccc2c(N)c(C(=O)NCCc3cccc(C(=O)O)c3)sc2n1` [Example I-175], the pIC50 in test [1] and in test [2] was 5.00 to 5.70 in each case.
Turning to `Cc1ccc2c(N)c(C(=O)NCCc3ccc4c(c3)C[C@H](C(=O)O)C4)sc2n1` [Example I-176], the pIC50 in test [1] and in test [2] was 5.70 to 6.70 throughout.
For `Cc1ccc2c(N)c(C(=O)NCCc3ccc4c(c3)C[C@@H](C(=O)O)C4)sc2n1` [Example I-177], the pIC50 in test [1] and in test [2] was 5.70 to 6.70 each time.
Regarding `Cc1ccc2c(N)c(C(=O)NCCc3cccc(CC(=O)O)c3)sc2n1` [Example I-178], the pIC50 in test [1] and in test [2] was 5.00 to 5.70 in each case.
Turning to `Nc1c(C(=O)NCCc2ccc(N3CCNCC3)c(Cl)c2)sc2nc(C(F)F)ccc12` [Example I-179, 3-Amino-N-(3-chloro-4-(piperazin-1-yl)phenethyl)-6-(difluoromethyl)thieno[2,3-b]pyridine-2-carboxamide], the pIC50 in test [1] and in test [2] was 5.00 to 5.70 in each case.
As to `Cc1ccc2c(N)c(C(=O)NCCc3ccc(N4CCNCC4)c(O)c3)sc2n1` [Example I-182, 3-amino-N-(3-hydroxy-4-(piperazin-1-yl)phenethyl)-6-methylthieno[2,3-b]pyridine-2-carboxamide], the pIC50 in test [1] is 5.70 to 6.70; in test [2] it was 5.00 to 5.70.
Consider `Cc1cc(N)nc2sc(C(=O)NCCc3ccc(N4CCNCC4)cc3)c(N)c12` [Example I-183, 3,6-Diamino-4-methyl-N-(4-(piperazin-1-yl)phenethyl)thieno[2,3-b]pyridine-2-carboxamide], for which the pIC50 in test [1] and in test [2] was 5.70 to 6.70 throughout.
Consider `Nc1ccc2c(N)c(C(=O)NCCc3ccc(N4CCNCC4)cc3)sc2n1` [Example I-184], for which the pIC50 in test [1] and in test [2] was 5.70 to 6.70 in each case.
`CN(C)c1ccc2c(N)c(C(=O)NCCc3ccc(N4CCNCC4)cc3)sc2n1` [Example I-186, 3-Amino-6-(dimethylamino)-N-(4-(piperazin-1-yl)phenethyl)thieno[2,3-b]pyridine-2-carboxamide]: the figures for the pIC50 in test [1] and in test [2] were 5.00 to 5.70 and 4.60 to 5.00, respectively.
`CCNc1ccc2c(N)c(C(=O)NCCc3ccc(N4CCNCC4)cc3)sc2n1` [Example I-188]: the pIC50 was greater than 6.70 in test [1] and 5.70 to 6.70 in test [2].
The matching figures for `CC(C)Nc1ccc2c(N)c(C(=O)NCCc3ccc(N4CCNCC4)cc3)sc2n1` [Example I-189]: 5.70 to 6.70 and 5.00 to 5.70.
`COc1ccc2c(N)c(C(=O)NCCc3ccc(N4CCNCC4)cc3)sc2n1` [Example I-190, 3-Amino-6-methoxy-N-(4-(piperazin-1-yl)phenethyl)thieno[2,3-b]pyridine-2-carboxamide]: the pIC50 in test [1] and in test [2] was 5.70 to 6.70 each time.
As to `CCOc1ccc2c(N)c(C(=O)NCCc3ccc(N4CCNCC4)cc3)sc2n1` [Example I-191], the pIC50 in test [1] is 5.70 to 6.70; in test [2] it was 5.00 to 5.70.
On to `CC(C)Oc1ccc2c(N)c(C(=O)NCCc3ccc(N4CCNCC4)cc3)sc2n1` [Example I-192], for which the negative-log IC50 (pIC50) is 5.70 to 6.70 in test [1] and 5.00 to 5.70 in test [2].
The matching figures for `Nc1c(C(=O)NCCc2ccc(N3CCNCC3)cc2)sc2nc(OC(F)F)ccc12` [Example I-193, 3-Amino-6-(difluoromethoxy)-N-(4-(piperazin-1-yl)phenethyl)thieno[2,3-b]pyridine-2-carboxamide]: greater than 6.70 and 5.70 to 6.70.
For the compound `CNc1ccc2c(N)c(C(=O)NCCc3ccc(N4CCN(C)CC4)cc3)sc2n1` [Example I-195], the figures for the pIC50 in test [1] and in test [2] were greater than 6.70 and 5.70 to 6.70, respectively.
Turning to `CNc1ccc2c(N)c(C(=O)NCCc3ccc(C4CCNCC4)cc3)sc2n1` [Example I-196], the negative logarithm of the IC50 (pIC50) in test [1] and in test [2] was 5.70 to 6.70 throughout.
Take `Cc1nc2sc(C(=O)NCCc3ccc(N4CCNCC4)cc3)c(N)c2cc1C1CC1` [Example I-197, 3-Amino-5-cyclopropyl-6-methyl-N-(4-(piperazin-1-yl)phenethyl)thieno[2,3-b]pyridine-2-carboxamide]: the pIC50 was 5.00 to 5.70 in test [1] and 4.60 to 5.00 in test [2].
On to `Cc1nc2sc(C(=O)NCCc3ccc(N4CCNCC4)cc3)c(N)c2cc1N` [Example I-198, 3,5-Diamino-6-methyl-N-(4-(piperazin-1-yl)phenethyl)thieno[2,3-b]pyridine-2-carboxamide], for which the pIC50 in test [1] is 5.00 to 5.70; in test [2], 4.60 to 5.00.
The matching figures for `CNC1CN(c2cc(F)c(CCNC(=O)c3sc4nc(C)ccc4c3N)cc2F)C1` [Example I-199, 3-Amino-N-(2,5-difluoro-4-(3-(methylamino)azetidin-1-yl)phenethyl) -6-methylthieno[2,3-b]pyridine-2-carboxamide]: 5.70 to 6.70 and 5.70 to 6.70.
The matching figures for `CCN[C@@H]1CCN(c2ccc(CCNC(=O)c3sc4nc(C)ccc4c3N)cc2)C1` [Example I-200, (R)-3-amino-N-(4-(3-(ethylamino)pyrrolidin-1-yl)phenethyl)-6-methylthieno[2,3-b]pyridine-2-carboxamide]: 5.70 to 6.70 and 5.70 to 6.70.
The matching figures for `Cc1ccc2c(N)c(C(=O)NC[C@@H](C)c3ccc(N4CCNCC4)cc3)sc2n1` [Example I-203]: 5.70 to 6.70 and 5.00 to 5.70.
For `Cc1ccc2c(N)c(C(=O)NC[C@H](C)c3cc(F)c(N4CCNCC4)cc3F)sc2n1` [Example I-208], the pIC50 in test [1] is 5.70 to 6.70; in test [2], 5.00 to 5.70.
On to `Cc1ccc2c(N)c(C(=O)NCCc3cnc(N4CCNCC4)c(Cl)c3)sc2n1` [Example I-215, 3-Amino-N-(2-(5-chloro-6-(piperazin-1-yl)pyridin-3-yl)ethyl)-6-methylthieno[2,3-b]pyridine-2-carboxamide], for which the pIC50 in test [1] is 5.70 to 6.70; in test [2], 5.00 to 5.70.
Regarding `N#Cc1ccc2c(N)c(C(=O)NCCc3cc(F)c(N4CCNCC4)cc3F)sc2n1` [Example I-220, 3-Amino-6-cyano-N-(2,5-difluoro-4-(piperazin-1-yl)phenethyl)thieno[2,3-b]pyridine-2-carboxamide], the pIC50 in test [1] and in test [2] was 5.00 to 5.70 throughout.
With `Nc1c(C(=O)NCCc2ccc(N3CCNCC3)cc2)sc2nc3c(cc12)CCC3O` (stereo not shown) [Example I-223, 3-Amino-7-hydroxy-N-(4-(piperazin-1-yl)phenethyl)-6,7-dihydro-5H-cyclopenta[b]thieno[3,2-e]pyridine-2-carboxamide], the pIC50 in test [1] is 5.00 to 5.70; in test [2], 5.70 to 6.70.

(Values after patent US10913753B2, “Thienopyridine carboxamides as ubiquitin-specific protease inhibitors” (FORMA Therapeutics, Inc., priority 2016, dated 2021).)
